Here are results for six compounds from ChEMBL document CHEMBL1126188, “Synthesis and anti-HIV activity of 4'-thio-2',3'-dideoxynucleosides” (J Med Chem, 1992).

≈ marks a conversion by molar mass, not a printed value.

One may read the IC50 as the point on the concentration scale where inhibition reaches its midpoint. A low value points to higher potency.

Assay [1] in a line: Selectivity index is calculated by dividing the TC25(MT2) by ID50(MT2). It is filed as functional.
The test system of assay [2] is CCRF-CEM. Nature of the assay: Minimum compound concentration that reduced cell viability by 25% for HIV replication in CEM cells. It is filed as functional, Homo sapiens.
Assay [3] has as its system MT2. The experiment in a line: Total viral index (TAI) is the area between the cytotoxicity and the antiviral activity curve for MT-2 cells. It is filed as functional, Homo sapiens.
Assay [4] is described as follows: Selectivity index is calculated by dividing the TC25(CEM) by ID50(CEM). It is filed as functional.
Assay [5] deals with MT2. Nature of the assay: Compound was tested for its inhibitory activity against HIV replication in MT-2 cells. The conditions noted are these: Homo sapiens. It is filed as functional, cell-based.
Assay [6] relates to CCRF-CEM. Nature of the assay: Compound was tested for its inhibitory activity against HIV replication in CEM cells. It is filed as functional, cell-based. The following applies: Homo sapiens.
Assay [7] deals with CCRF-CEM. Nature of the assay: Total viral index (TAI) is the area between the cytotoxicity and the antiviral activity curve for CEM cell line. It is filed as functional, Homo sapiens.
The test system of assay [8] is MT2. The experiment in a line: Minimum compound concentration that reduced cell viability by 25% for HIV replication in MT-2 cells. It is filed as functional, Homo sapiens.
For assay [9], the system named is MT2. Nature of the assay: Total viral index (TAI) is the area between the cytotoxicity and the antiviral activity curve for MT-2 cell line. It is filed as functional, Homo sapiens.
In assay [10] the test system is CCRF-CEM. Nature of the assay: Total viral index (TAI) is the area between the cytotoxicity and the antiviral activity curve for CEM cells. It is filed as functional, Homo sapiens.
In assay [11] the test system is CCRF-CEM. The experiment in a line: Compound was tested for its inhibitory activity against HIV replication in CEM cells. The conditions noted are these: Homo sapiens.
The subject of assay [12] is CCRF-CEM. Nature of the assay: Total viral index (TAI) is the area between the cytotoxicity and the antiviral activity curve for CEM cells.
Assay [13] deals with CCRF-CEM. Nature of the assay: Minimum compound concentration that reduced cell viability by 25% for HIV replication in CEM cells.

With `Nc1ccn(C2CC[C@@H](CO)S2)c(=O)n1` (some centres not stated), the Selectivity index in assay [1] and in assay [4] was above 100 throughout. In addition, the TC25 in assay [2] and in [8] was above 100 µg/mL in each case. For the same compound, the figures for the TAI in assay [3] and in [7] were above 23 and above 65, respectively. Also, the IC50 turned out to be 38 µg/mL (≈ 167 µM) in assay [5] and 1 µg/mL (≈ 4.4 µM) in assay [6].
`Nc1ncnc2c1ncn2C1CC[C@@H](CO)S1` (some centres not stated): the Selectivity index in assay [1] was 1.3. Besides, in [5], the half-maximal inhibitory concentration (IC50) was 80 µg/mL (≈ 318 µM). For the same compound, the TAI in [9] is reported as above 10. Moreover, the TC25 in assay [8] was above 100 µg/mL.
Take `Nc1nc(O)c2ncn(C3CC[C@@H](CO)S3)c2n1` (some centres not stated): the Selectivity index in [1] is 1.6. Further, the TC25 in assay [2] is above 100 µg/mL; in assay [8] it was above 200 µg/mL. In assay [5], inhibition was half-maximal at 98 µg/mL (≈ 367 µM) (IC50). In assay [9], this compound had a TAI of 11.
In the case of `Cc1cn([C@H]2C[C@H](N=[N+]=[N-])[C@@H](CO)O2)c(=O)[nH]c1=O` [ZIDOVUDINE], the values for the Selectivity index in assay [1] and in assay [4] were above 160 and above 300, respectively. Further, the TC25 in [2] was above 10 µg/mL; in assay [8] it was 9.3 µg/mL (≈ 34.8 µM). In addition, the results for the IC50 in [5] and in assay [6] were 0.14 µg/mL (≈ 0.524 µM) and below 0.03 µg/mL, respectively. Further, the TAI is recorded as above 82 in assay [9] and above 93 in assay [10].
Regarding `Nc1ccn([C@H]2CC[C@@H](CO)O2)c(=O)n1` [ZALCITABINE], the Selectivity index was above 25 in assay [1] and 120 in assay [4]. The TC25 in assay [2] was 5.3 µg/mL (≈ 25.1 µM); in [8] it was above 9.8 µg/mL. Besides, the IC50 in assay [5] was determined as 0.44 µg/mL (≈ 2.08 µM); in [6], 0.05 µg/mL (≈ 0.237 µM). Besides, the TAI in assay [9] was above 52; in [10], above 63.
As for `Nc1nc(N)c2ncn(C3CC[C@@H](CO)S3)c2n1` (some centres not stated), the IC50 in assay [11] was determined as 37 µg/mL (≈ 139 µM). Also, the TAI in assay [12] was determined as 21. In addition, in [4], the Selectivity index was 2.6. Moreover, in [13], the TC25 was determined as 97 µg/mL (≈ 364 µM).
